Results published in patent publication US8420624B2, “Methods for treating or preventing symptoms of hormonal variations” (Yung Shin Pharm. Ind. Co., Ltd., priority 2007, dated 2013).
Like-named read-outs stand apart in the source and are kept apart here.

Legend:
[1] = system: hot flashes; test: Case report: risperidone for hot flashes in a case with hysterectomy; assay type: in vivo, human; conditions: for response of hot flashes to earlier treatments: person, PREMARIN 0.625 mg/day, PROZAC 20 mg/day, TOFRANIL 20 mg/day, each for 1-2 months
Protocol: A person was admitted to the hospital in December of 2004 due to hot flashes, hypertension, and restlessness. They had been told that they were suffering from essential hypertension for 16 years and had taken anti-hypertension medications for several years. However, their blood pressure still fluctuated and frequently dropped below critical level after taking sublingual adalate (10 mg) for sudden onsets of high blood pressure. They had no history of psychiatric or systemic diseases, except for a total abdominal hysterectomy. On admission, it was observed that their hot flash attacks occurred many times a day, lasting a few minutes and was usually followed by high blood pressure up to 180-200/84-96 mmHg, general shivers, and anxiety for 20-60 minutes. Such clinical symptoms started and grew progressively worse.
[…] biochemical and hematological results, such as sodium and potassium levels, 140 mmol/L and 4.0 mmol/L, respectively, were all within normal ranges. […] The plasma adrenaline, nor-adrenaline, VMA, epinephrine, and dopamine levels as well as thyroid hormones, including T3, T4, and TSH, were also normal.
Because estrogen withdrawal may alter the thermoregulatory set-point located in the hypothalamus, by increasing the sensitivity of hypothalamic 5-HT2A receptor, a regimen of a 5-HT2A antagonist may provide an effective therapy for symptoms of hormonal variations, such as hot flashes. Thus, the patient was treated with risperidone (2 mg/day). […] Thereafter, the dosage of anti-hypertension drugs was reduced. With the patient's permission, risperidone therapy was discontinued and hot flashes reoccurred within 2-3 days after discontinuing the treatment. The symptoms were again alleviated 3-4 days after resuming risperidone treatment.

[2] = system: hot flashes; conditions: cited from earlier work; for minimizing occurrence and severity of hot flashes versus placebo: randomized clinical trials
[3] = system: α-adrenergic receptors; conditions: cited from earlier work
[4] = system: histamine receptors; conditions: cited from earlier work
[5] = system: cholinergic muscarinic receptors; conditions: cited from earlier work
[6] = system: hot flashes; conditions: cited from earlier work
[7] = system: hot flashes; conditions: pilot trials; cited from earlier work
[8] = system: hot flashes; conditions: men and women; placebo 20 percent; cited from earlier work
[9] = system: hot flashes; conditions: other pilot evaluations; compared with venlafaxine and paroxetine; cited from earlier work
[10] = biological target: D2 dopamine receptor (Homo sapiens, UniProt P14416); conditions: serial PET scans; cited from earlier work
[11] = system: hot flashes; test: Case report: risperidone for hot flashes of natural menopause; assay type: in vivo, human
Excerpt: Patient 2 was a person who began developing intolerable hot flashes and night sweats after natural menopause that occurred seven years ago. […] One month after discontinuing hormone replacement therapy, they developed hot flashes up to ten times per day, night sweats up to three times per night that disrupted their sleep, and headaches. The patient then sought neurological consultation. The patient also suffered from headaches twice per day and fluctuating blood pressure. […] In addition, they slept well and their blood pressure stabilized. To assess the relationship between risperidone therapy and the resolution of hot flashes, risperidone was tapered off over 2 days. The patient experienced hot flashes and night sweats again two days after risperidone treatment was completely discontinued.

[12] = system: hot flashes; test: Case report: risperidone for hot flashes in a perimenopausal case; assay type: in vivo, human
Protocol: Patient 3 was a person who was diagnosed with perimenopause, based on increased levels of follicle-stimulating hormone, increased variability in menstrual cycle length, development of hot flashes, and insomnia. The patient had had these symptoms for two years. […] Risperidone treatment (1 mg per night) was started. At that time, the patient was experiencing seven hot flashes per day. […] With their permission, risperidone was tapered off over two days, and the hot flashes developed again three days later.

[13] = system: hot flashes; test: Case report: risperidone for residual hot flashes in a case with hormone replacement therapy; assay type: in vivo, human
Excerpt: Patient 4 was a person who had developed hot flashes, with a frequency of once per hour, palpitation, insomnia, headache, restlessness, and unstable blood pressure for over seven years. Initially, the patient visited a psychiatrist for their sleep disorder and a cardiovascular specialist for their high blood pressure. A year later, because of intolerable hot flashes and other menopausal symptoms, they received hormone replacement therapy (DIVINA®). Although their hot flashes were reduced to twice per day, headaches persisted and their blood pressure fluctuated from 180 to 210/110 to 90 mm Hg despite treatment with anti-hypertension drugs. The patient was started on risperidone treatment, 1 mg at bedtime for the first two days, followed by 2 mg per night, for residual hot flashes.

[14] = system: dopamine receptors; conditions: cited from earlier work
[15] = system: serotonin receptors; conditions: cited from earlier work
[16] = biological target: D2 receptors (Homo sapiens, UniProt P14416); conditions: cited from earlier work
[17] = biological target: D1 dopamine receptor (Homo sapiens, UniProt P21728); conditions: cited from earlier work
Sequence of D1 dopamine receptor (P21728 whole entry): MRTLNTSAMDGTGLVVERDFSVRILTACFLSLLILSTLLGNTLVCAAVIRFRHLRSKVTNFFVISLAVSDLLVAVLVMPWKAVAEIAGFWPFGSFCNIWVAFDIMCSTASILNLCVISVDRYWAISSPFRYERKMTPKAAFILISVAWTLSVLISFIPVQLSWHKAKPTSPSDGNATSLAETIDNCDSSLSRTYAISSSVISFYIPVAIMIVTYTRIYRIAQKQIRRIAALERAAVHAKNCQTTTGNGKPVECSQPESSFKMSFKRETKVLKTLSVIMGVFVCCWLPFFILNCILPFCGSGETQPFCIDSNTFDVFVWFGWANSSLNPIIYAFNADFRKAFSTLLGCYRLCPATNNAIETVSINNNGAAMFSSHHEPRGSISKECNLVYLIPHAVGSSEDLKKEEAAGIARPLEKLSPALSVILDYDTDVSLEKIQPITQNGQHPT

Sequence of D2 receptors (P14416 whole entry): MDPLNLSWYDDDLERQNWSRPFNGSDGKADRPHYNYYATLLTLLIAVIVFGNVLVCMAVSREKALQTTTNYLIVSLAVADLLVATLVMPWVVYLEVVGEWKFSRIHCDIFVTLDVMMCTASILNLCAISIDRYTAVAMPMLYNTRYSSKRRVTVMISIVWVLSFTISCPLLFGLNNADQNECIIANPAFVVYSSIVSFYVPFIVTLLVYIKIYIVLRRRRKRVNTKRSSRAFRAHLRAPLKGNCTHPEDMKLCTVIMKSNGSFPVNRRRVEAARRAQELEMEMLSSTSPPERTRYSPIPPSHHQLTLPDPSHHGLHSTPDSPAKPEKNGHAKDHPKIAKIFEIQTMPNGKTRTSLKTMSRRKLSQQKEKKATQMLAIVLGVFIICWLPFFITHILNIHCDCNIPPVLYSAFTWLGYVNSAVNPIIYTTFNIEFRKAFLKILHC
Sequence of D2 dopamine receptor (P14416 whole entry): as above

Compound: CNCCC(Oc1ccc(C(F)(F)F)cc1)c1ccccc1 (stereo not drawn) [Fluoxetine]
- response of hot flashes to earlier treatments [1]: limited success
- reduction in hot-flash scores ([2]; 20 mg/day, placebo 36%, P=0.02): 50%

Compound: CN(C)CCCN1c2ccccc2CCc2ccccc21.Cl [TOFRANIL®]
- response of hot flashes to earlier treatments [1]: limited success

Compound: O=C1CCc2ccc(OCCCCN3CCN(c4cccc(Cl)c4Cl)CC3)cc2N1 [aripiprazole]
- affinity [3]: moderate affinities
- affinity [4]: moderate affinities
- affinity [5]: no appreciable affinity

Compound: Clc1cccc(Cl)c1N=C1NCCN1 [clonidine]
- adverse effects ([6]; common adverse effects in clinical trials): dry mouth, dizziness, and blurred vision
- difference from placebo effect, self-reported hot flash frequency ([6]; men, double blind cross over study): not statistically significant
- efficacy against hot flashes versus placebo ([6]; randomized clinical trials): moderately more efficacious than placebo
- decrease of hot flash frequency greater than that seen with placebo ([6]; women): 10-15%

Compound: NCC1(CC(=O)O)CCCCC1 [gabapentin]
- reduction of the incidence of hot flashes [7]: 42%-70%

Compound: CC(=O)O[C@]1(C(C)=O)CC[C@H]2[C@@H]3C=C(C)C4=CC(=O)CC[C@]4(C)[C@H]3CC[C@@]21C [megestrol acetate]
- reduction in self-reported hot flash frequency [8]: ~80%

Compound: CN1CCN2c3ncccc3Cc3ccccc3C2C1 (stereo not drawn) [mirtazapine]
- alleviation of hot flashes [9]: alleviate hot flashes to a similar degree

Compound: Fc1ccc([C@@H]2CCNC[C@H]2COc2ccc3c(c2)OCO3)cc1 [paroxetine]
- minimizing occurrence and severity of hot flashes versus placebo [2]: more effective than placebo

Compound: OCCOCCN1CCN(C2=Nc3ccccc3Sc3ccccc32)CC1 [quetiapine]
- dissociation from the D2 receptor [10]: rapidly disassociates

Compound: Cc1nc2n(c(=O)c1CCN1CCC(c3noc4cc(F)ccc34)CC1)CCCC2 [risperidone]
- associated symptoms (palpitation, anxiety) ([1]; risperidone 2 mg/day): improved significantly
- hot flash frequency ([1]; risperidone 2 mg/day, after three days of treatment, before: many times a day): reduced markedly to a frequency of once per 1-2 weeks
- time to reoccurrence of hot flashes after discontinuing treatment ([1]; risperidone discontinued): 2 to 3 days
- time to alleviation of symptoms after resuming treatment ([1]; risperidone resumed): 3 to 4 days
- hot flashes after resuming treatment ([11]; risperidone 2 mg daily resumed): has not suffered another hot flash since
- blood pressure ([11]; risperidone 2 mg per day): stabilized
- sleep ([11]; risperidone 2 mg per day): slept well
- occurrence of hot flashes ([11]; risperidone 2 mg per day, by day 7): completely eliminated
- occurrence of hot flashes ([11]; risperidone 2 mg per day, two days after start, before: up to ten times per day): reduced markedly
- time to return of hot flashes and night sweats after treatment completely discontinued ([11]; risperidone tapered off over 2 days): two
- hot flashes at decreased dosage ([12]; risperidone 0.25 mg or less per day, three months later): still markedly eliminated
- hot flashes after resuming treatment ([12]; risperidone 1 mg daily resumed): no longer experienced hot flashes
- quality of sleep and life ([12]; risperidone 1 mg daily resumed): improved
- frequency and intensity of hot flashes ([12]; risperidone 1 mg per night, three days after start, before: seven hot flashes per day): markedly reduced
- time to return of hot flashes after tapering off ([12]; risperidone tapered off over two days): three
- residual hot flashes ([13]; risperidone 1 mg at bedtime for two days, then 2 mg per night, three days after start): completely eliminated
- blood pressure ([13]; risperidone 1 mg then 2 mg per night): stabilized within the normal range

Compound: COc1ccc(C(CN(C)C)C2(O)CCCCC2)cc1 (stereo not drawn) [venlafaxine]
- reduction in hot-flash scores ([2]; low-dose (37.5 mg/day), placebo 27%): 37%
- reduction in hot-flash scores ([2]; moderate and high doses (75 and 150 mg/day)): 61%
- minimizing occurrence and severity of hot flashes versus placebo [2]: more effective than placebo

Compound: O=C1Cc2cc(CCN3CCN(c4nsc5ccccc45)CC3)c(Cl)cc2N1 [ziprasidone]
- affinity [14]: high affinity
- affinity [15]: high affinity
- affinity [3]: high affinity
- affinity [4]: moderate affinity

Compound: CN(C)CCOC1=Cc2ccccc2Sc2ccc(Cl)cc21 [zotepine]
- affinity [16]: high affinity
- affinity [17]: high affinity

Compound: estrogen
- response to estrogen therapy ([12]; perimenopausal person): responded well
